# Measurements published in patent US20230203081A1, “LINCOSAMIDE ANTIBIOTICS AND USES THEREOF” (President and Fellows of Harvard College, priority 2020, published 2023).
# How the values were obtained:
# Type in all cases: cell-based
# [1] = test system: E. coli armA; experiment: microbe, parasite or virus in culture; conditions: E. coli HAV#056; Clinical, armA
# In short: (§1)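 Per CLSI, MICs by broth microdilution or agar dilution; strains other than streptococci and anaerobes were sub-cultured overnight at 35° C on blood agar, with a final broth inoculum of 5×10^5 CFU/mL.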
# [2] = test system: E. coli ΔTolC; experiment: microbe, parasite or virus in culture; conditions: E. coli HAV#038; ΔTolC
# In short: as §1
# [3] = test system: S. aureus BAA 977 iErmA; experiment: microbe, parasite or virus in culture; conditions: S. aureus #HAV002, ATCC BAA 977; iErmA, MRSA
# In short: as §1
# [4] = test system: S. aureus MP-549 msrA; experiment: microbe, parasite or virus in culture; conditions: S. aureus HAV#032, MP-549; MSR(A)
# In short: as §1
# [5] = test system: broad panel of different clinical isolates; experiment: organism not typed
# In short: as §1
# [6] = test system: E. coli ATCC 25922; experiment: MIC (broth microdilution or agar dilution, CLSI); conditions: E. coli HAV#006, ATCC 25922
# In short: as §1
# [7] = test system: E. coli LptD; experiment: MIC (broth microdilution or agar dilution, CLSI); conditions: E. coli HAV#040; LptD
# In short: as §1
# [8] = test system: E. faecalis ATCC 29212; experiment: MIC (broth microdilution or agar dilution, CLSI); conditions: E. faecalis HAV#005, ATCC 29212
# In short: as §1
# [9] = test system: E. faecalis MMX 847; cErmB; experiment: MIC (broth microdilution or agar dilution, CLSI); conditions: E. faecalis HAV#036, MMX 847; mac-resistant, cErmB
# In short: as §1
# [10] = test system: K. pneumoniae ATCC 10031; experiment: MIC (broth microdilution or agar dilution, CLSI); conditions: K. pneumoniae HAV#008, ATCC 10031
# In short: as §1
# [11] = test system: S. aureus ATCC 29213; experiment: MIC (broth microdilution or agar dilution, CLSI); conditions: S. aureus HAV#001, ATCC 29213, MP-549
# In short: as §1
# [12] = test system: S. aureus ATCC BAA-1707 (MRSA); experiment: MIC (broth microdilution or agar dilution, CLSI); conditions: S. aureus HAV#016, ATCC BAA-1707; MRSA
# In short: as §1
# [13] = test system: S. aureus MMX 3035 cErmA; experiment: MIC (broth microdilution or agar dilution, CLSI); conditions: S. aureus HAV#031, MMX 3035; cErmA
# In short: as §1
# [14] = test system: S. pneumoniae ATCC 49619; experiment: MIC (broth microdilution or agar dilution, CLSI); conditions: S. pneumoniae HAV#003, ATCC 49619
# In short: as §1
# [15] = test system: S. pneumoniae ATCC 6303; experiment: MIC (broth microdilution or agar dilution, CLSI); conditions: S. pneumoniae HAV#351, ATCC 6303
# In short: as §1
# [16] = test system: S. pneumoniae MMX 3028 cErmB; experiment: MIC (broth microdilution or agar dilution, CLSI); conditions: S. pneumoniae HAV#033; MMX 3028, cErmB
# In short: as §1
# [17] = test system: S. pneumoniae MMX 3031 cMefA; experiment: MIC (broth microdilution or agar dilution, CLSI); conditions: S. pneumoniae HAV#034; MMX 3031, cMefA
# In short: as §1
# [18] = test system: S. pyogenes ATCC 19615; experiment: MIC (broth microdilution or agar dilution, CLSI); conditions: S. pyogenes HAV#004, ATCC 19615
# In short: as §1
# [19] = test system: S. pyogenes MMX 946; cErmB; experiment: MIC (broth microdilution or agar dilution, CLSI); conditions: S. pyogenes HAV#035, MMX 946; cErmB, mac-resistant
# In short: as §1
substance,measurement,setting,value
Gentamicin,MIC,[1],>256 µg/mL
same,MIC,[2],1 µg/mL
same,MIC,[3],2 µg/mL
same,MIC,[4],1 µg/mL
same,MIC,"[5]; A. baumannii HAV#651, Clinical",2 µg/mL
same,MIC,[5]; A. baumannii HAV#652 Clinical,16 µg/mL
same,MIC,"[5]; A. baumannii HAV#653, Clinical",0.5 µg/mL
same,MIC,"[5]; A. baumannii HAV#654, Clinical",2 µg/mL
same,MIC,"[5]; A. baumannii HAV#655, Clinical",2 µg/mL
same,MIC,"[5]; A. baumannii HAV#656, Clinical",4 µg/mL
same,MIC,"[5]; A. baumannii HAV#657, Clinical",4 µg/mL
same,MIC,"[5]; A. baumannii HAV#658, Clinical",1 µg/mL
same,MIC,"[5]; A. baumannii HAV#659, Clinical",32 µg/mL
same,MIC,"[5]; A. baumannii HAV#660, Clinical",32 µg/mL
same,MIC,"[5]; A. baumannii HAV#661, Clinical",1 µg/mL
same,MIC,"[5]; A. baumannii HAV#662, Clinical",4 µg/mL
same,MIC,"[5]; A. baumannii HAV#663, Clinical",0.5 µg/mL
same,MIC,"[5]; A. baumannii HAV#664, Carbapenem R",>128 µg/mL
same,MIC,"[5]; E. coli HAV#501, Clinical",2 µg/mL
same,MIC,"[5]; E. coli HAV#503, Clinical",4 µg/mL
same,MIC,"[5]; E. coli HAV#511, Clinical",16 µg/mL
same,MIC,"[5]; E. coli HAV#512, Clinical",2 µg/mL
same,MIC,"[5]; E. coli HAV#513, Clinical",2 µg/mL
same,MIC,"[5]; E. coli HAV#514, Clinical",1 µg/mL
same,MIC,"[5]; E. coli HAV#516, ESBL-producing",2 µg/mL
same,MIC,"[5]; E. faecalis HAV#251, Clinical VRE",16 µg/mL
same,MIC,"[5]; E. faecalis HAV#606, Clinical, VRE",>256 µg/mL
same,MIC,"[5]; E. faecalis HAV#607, Clinical",>256 µg/mL
same,MIC,"[5]; E. faecalis HAV#608, Clinical",>256 µg/mL
same,MIC,"[5]; E. faecalis HAV#609, Clinical",>256 µg/mL
same,MIC,"[5]; E. faecalis HAV#610, Clinical",>256 µg/mL
same,MIC,"[5]; E. faecalis HAV#611, Line R & Vanco R",>128 µg/mL
same,MIC,"[5]; E. faecalis HAV#612, Line R",>128 µg/mL
same,MIC,"[5]; E. faecium HAV#317, Clinical",16 µg/mL
same,MIC,"[5]; E. faecium HAV#318, VanA, VRE",8 µg/mL
same,MIC,"[5]; E. faecium HAV#324, Clinical",>256 µg/mL
same,MIC,"[5]; E. faecium HAV#327, Clinical",8 µg/mL
same,MIC,"[5]; E. faecium HAV#328, Clinical",>256 µg/mL
same,MIC,"[5]; E. faecium HAV#329, Clinical",4 µg/mL
same,MIC,"[5]; H. influenzae HAV#376, ATCC-9007",4 µg/mL
same,MIC,"[5]; K. pneumoniae HAV#041, Clinical, KPC",8 µg/mL
same,MIC,"[5]; K. pneumoniae HAV#404, Clinical",0.5 µg/mL
same,MIC,"[5]; K. pneumoniae HAV#405, Clinical",0.5 µg/mL
same,MIC,"[5]; K. pneumoniae HAV#406, Clinical",1 µg/mL
same,MIC,"[5]; K. pneumoniae HAV#407, Clinical",0.5 µg/mL
same,MIC,"[5]; K. pneumoniae HAV#408, Clinical",2 µg/mL
same,MIC,"[5]; K. pneumoniae HAV#409, ESBL-producing",0.5 µg/mL
same,MIC,"[5]; S. aureus HAV#017, MRSA Col(Colindale, England)",0.5 µg/mL
same,MIC,"[5]; S. aureus HAV#051, mecA, norA, spcl, ermA, aad1, aac6′-aph2″",2 µg/mL
same,MIC,"[5]; S. aureus HAV#052, mecA, norA, fosB, blaZ",1 µg/mL
same,MIC,"[5]; S. aureus HAV#053 mecA, norA, fosB",1 µg/mL
same,MIC,"[5]; S. aureus HAV#054, mecA, norA, spcl, aad1, fosB, ermA, aac6′-aph2″, blaZ",128 µg/mL
same,MIC,"[5]; S. aureus HAV#203, Clinical (VISA)",>64 µg/mL
same,MIC,"[5]; S. aureus HAV#216, Clinical, cfr",8 µg/mL
same,MIC,"[5]; S. aureus HAV#217, cfr",4 µg/mL
same,MIC,"[5]; S. epidermidis HAV# 275 Clinical, cfr",>64 µg/mL
same,MIC,"[5]; S. epidermidis HAV# 276, cfr",>64 µg/mL
same,MIC,"[5]; S. haemolyticus HAV#252, Line R & Methicillin R",>128 µg/mL
same,MIC,[6],2 µg/mL
same,MIC,[7],1 µg/mL
same,MIC,[8],16 µg/mL
same,MIC,[9],>64 µg/mL
same,MIC,[10],0.25 µg/mL
same,MIC,[11],1 µg/mL
same,MIC,[12],1 µg/mL
same,MIC,[13],1 µg/mL
same,MIC,[14],16 µg/mL
same,MIC,[15],32 µg/mL
same,MIC,[16],4 µg/mL
same,MIC,[17],8 µg/mL
same,MIC,[18],8 µg/mL
same,MIC,[19],16 µg/mL
